Assay results as given in ChEMBL document CHEMBL1201862, “PubChem BioAssay data set” (2004).
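Compound exposure: 48 hours, 5 concentrations, 96-well plates. GI50 is the concentration that inhibits growth by half.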 Calls of active or inactive are those of the source. Rule as the data show it: active = GI50 up to about 1.1 µM and inactive = higher.

Assays:
Experiment in all cases: NCI anticancer screen, dose series, 48 h
UACC-257 = test system: UACC-257
NCI-H460 = test system: NCI-H460
SNB-75 = test system: SNB-75
SN12C = test system: SN12C
DU-145 = test system: DU-145
EKVX = test system: EKVX
CAKI-1 = test system: CAKI-1
SW-620 = test system: SW-620
OVCAR-3 = test system: OVCAR-3
OVCAR-4 = test system: OVCAR-4
OVCAR-5 = test system: OVCAR-5
NCI-H226 = test system: NCI-H226
HCT-15 = test system: HCT-15
SF-268 = test system: SF-268
SR = test system: SR
IGROV-1 = test system: IGROV-1
BT-549 = test system: BT-549
KM12 = test system: KM12
UACC-62 = test system: UACC-62
HOP-92 = test system: HOP-92

CC(C)(C)COS(=O)OCC(C)(C)C
GI50 (UACC-257): > 100 µM (inactive) | GI50 (NCI-H460): > 100 µM (inactive) | GI50 (SNB-75): > 100 µM (inactive) | GI50 (SN12C): > 100 µM (inactive) | GI50 (DU-145): > 100 µM (inactive) | GI50 (EKVX): > 100 µM (inactive) | GI50 (CAKI-1): > 100 µM (inactive) | GI50 (SW-620): > 100 µM (inactive) | GI50 (OVCAR-3): > 100 µM (inactive) | GI50 (OVCAR-4): > 100 µM (inactive) | GI50 (OVCAR-5): > 100 µM (inactive) | GI50 (NCI-H226): > 100 µM (inactive) | GI50 (HCT-15): > 100 µM | GI50 (SF-268): > 100 µM (inactive) | GI50 (SR): > 100 µM (inactive) | GI50 (IGROV-1): > 100 µM (inactive) | GI50 (BT-549): > 100 µM (inactive) | GI50 (KM12): > 100 µM (inactive) | GI50 (UACC-62): > 100 µM (inactive) | GI50 (HOP-92): > 100 µM (inactive)

CC(C)(C)c1nc2c(o1)C(=O)c1ccccc1C2=O
GI50 (UACC-257): 0.519 µM (active) | GI50 (NCI-H460): 3.82 µM (inactive) | GI50 (SNB-75): 2.96 µM (inactive) | GI50 (SN12C): 0.959 µM (active) | GI50 (DU-145): 1.1 µM (active) | GI50 (EKVX): 2.68 µM (inactive) | GI50 (CAKI-1): 2.78 µM (inactive) | GI50 (SW-620): 1.58 µM (inactive) | GI50 (OVCAR-3): 0.721 µM (active) | GI50 (OVCAR-4): 0.853 µM (active) | GI50 (OVCAR-5): 2.38 µM (inactive) | GI50 (NCI-H226): 3.3 µM (inactive) | GI50 (HCT-15): 2.48 µM | GI50 (SF-268): 2.47 µM (inactive) | GI50 (SR): 3.16 µM (inactive) | GI50 (IGROV-1): 2.46 µM (inactive) | GI50 (BT-549): 1.51 µM (inactive) | GI50 (KM12): 2.75 µM (inactive) | GI50 (UACC-62): 0.653 µM (active) | GI50 (HOP-92): 3.05 µM (inactive)

Cc1ccc(S(=O)(=O)NC(=O)NCC(=O)NCC(=O)O)cc1
GI50 (UACC-257): > 100 µM (inactive) | GI50 (NCI-H460): > 100 µM (inactive) | GI50 (SNB-75): > 100 µM (inactive) | GI50 (DU-145): > 100 µM (inactive) | GI50 (EKVX): > 100 µM (inactive) | GI50 (CAKI-1): > 100 µM (inactive) | GI50 (SW-620): > 100 µM (inactive) | GI50 (OVCAR-3): > 100 µM (inactive) | GI50 (OVCAR-4): > 100 µM (inactive) | GI50 (OVCAR-5): > 100 µM (inactive) | GI50 (NCI-H226): > 100 µM (inactive) | GI50 (HCT-15): > 100 µM | GI50 (SF-268): > 100 µM (inactive) | GI50 (SR): > 100 µM (inactive) | GI50 (IGROV-1): > 100 µM (inactive) | GI50 (BT-549): > 100 µM (inactive) | GI50 (KM12): > 100 µM (inactive) | GI50 (UACC-62): > 100 µM (inactive) | GI50 (HOP-92): > 100 µM (inactive)

O=C1c2ccccc2C(=O)N1CCCCNOCCCN1C(=O)c2ccccc2C1=O
GI50 (UACC-257): > 100 µM (inactive) | GI50 (NCI-H460): > 100 µM (inactive) | GI50 (SNB-75): > 100 µM (inactive) | GI50 (SN12C): > 100 µM (inactive) | GI50 (DU-145): > 100 µM (inactive) | GI50 (EKVX): > 100 µM (inactive) | GI50 (CAKI-1): > 100 µM (inactive) | GI50 (SW-620): > 100 µM (inactive) | GI50 (OVCAR-3): > 100 µM (inactive) | GI50 (OVCAR-4): > 100 µM (inactive) | GI50 (OVCAR-5): > 100 µM (inactive) | GI50 (NCI-H226): > 100 µM (inactive) | GI50 (HCT-15): > 100 µM | GI50 (SF-268): > 100 µM (inactive) | GI50 (SR): > 100 µM (inactive) | GI50 (IGROV-1): > 100 µM (inactive) | GI50 (BT-549): > 100 µM (inactive) | GI50 (KM12): > 100 µM (inactive) | GI50 (UACC-62): > 100 µM (inactive) | GI50 (HOP-92): > 100 µM (inactive)

CN(C)/C=N/c1ccc2[nH]c3ccccc3c2c1
GI50 (UACC-257): 15.9 µM (inactive) | GI50 (SNB-75): 37.7 µM (inactive) | GI50 (SN12C): 52.4 µM (inactive) | GI50 (DU-145): > 100 µM (inactive) | GI50 (EKVX): 65 µM (inactive) | GI50 (CAKI-1): 35.2 µM (inactive) | GI50 (OVCAR-3): > 100 µM (inactive) | GI50 (OVCAR-4): > 100 µM (inactive) | GI50 (OVCAR-5): 28.4 µM (inactive) | GI50 (NCI-H226): 27.4 µM (inactive) | GI50 (HCT-15): 20.6 µM | GI50 (SF-268): 64.6 µM (inactive) | GI50 (SR): 12.2 µM (inactive) | GI50 (IGROV-1): 43.5 µM (inactive) | GI50 (BT-549): > 100 µM (inactive) | GI50 (UACC-62): 21 µM (inactive) | GI50 (HOP-92): 15.8 µM (inactive)

CC(=O)/N=C1/N(/C=C2\C(=O)Oc3ccccc3C2=O)C(=O)/C(=C/c2cccc(Cl)c2Cl)N1C
GI50 (UACC-257): 39 µM (inactive) | GI50 (SNB-75): 17.3 µM (inactive) | GI50 (SN12C): 42.6 µM (inactive) | GI50 (DU-145): 41.8 µM (inactive) | GI50 (EKVX): 28.9 µM (inactive) | GI50 (CAKI-1): 27.4 µM (inactive) | GI50 (SW-620): 29.9 µM (inactive) | GI50 (OVCAR-3): 1.39 µM (inactive) | GI50 (OVCAR-5): 30.3 µM (inactive) | GI50 (NCI-H226): 24 µM (inactive) | GI50 (HCT-15): 9.82 µM | GI50 (SF-268): 20.4 µM (inactive) | GI50 (SR): 10.8 µM (inactive) | GI50 (IGROV-1): 21.4 µM (inactive) | GI50 (BT-549): 20.4 µM (inactive) | GI50 (KM12): 26.7 µM (inactive) | GI50 (UACC-62): 31 µM (inactive) | GI50 (HOP-92): 0.0333 µM (active)

COC(=O)C1=C(C)NC2=C(C(=O)c3ccccc32)C1c1cn(-c2ccccc2)nc1-c1ccccc1 (stereo unspecified)
GI50 (UACC-257): > 85.3 µM (inactive) | GI50 (SNB-75): 1.56 µM (inactive) | GI50 (SN12C): > 100 µM (inactive) | GI50 (DU-145): > 100 µM (inactive) | GI50 (EKVX): > 42.9 µM (inactive) | GI50 (CAKI-1): > 100 µM (inactive) | GI50 (SW-620): > 100 µM (inactive) | GI50 (OVCAR-3): > 48.1 µM (inactive) | GI50 (OVCAR-4): > 100 µM (inactive) | GI50 (OVCAR-5): > 100 µM (inactive) | GI50 (NCI-H226): 74.1 µM (inactive) | GI50 (HCT-15): 30.1 µM | GI50 (SF-268): > 45.6 µM (inactive) | GI50 (SR): 2 µM (inactive) | GI50 (IGROV-1): 6.24 µM (inactive) | GI50 (BT-549): 63.7 µM (inactive) | GI50 (KM12): 7.93 µM (inactive) | GI50 (UACC-62): > 42.6 µM (inactive) | GI50 (HOP-92): 18.3 µM (inactive)

COc1ccc2nc3c(nc2c1)C(C)(C)C=C3c1ccc(Br)cc1
GI50 (UACC-257): > 100 µM (inactive) | GI50 (NCI-H460): > 100 µM (inactive) | GI50 (SNB-75): 87.7 µM (inactive) | GI50 (SN12C): > 100 µM (inactive) | GI50 (DU-145): > 100 µM (inactive) | GI50 (EKVX): > 100 µM (inactive) | GI50 (CAKI-1): > 100 µM (inactive) | GI50 (SW-620): 5.68 µM (inactive) | GI50 (OVCAR-4): 76.9 µM (inactive) | GI50 (OVCAR-5): > 100 µM (inactive) | GI50 (NCI-H226): > 100 µM (inactive) | GI50 (HCT-15): > 100 µM | GI50 (SF-268): > 100 µM (inactive) | GI50 (SR): > 100 µM (inactive) | GI50 (IGROV-1): > 100 µM (inactive) | GI50 (BT-549): > 100 µM (inactive) | GI50 (KM12): > 100 µM (inactive) | GI50 (HOP-92): 32.5 µM (inactive)
